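Cells were grown in 96-well plates and exposed to each compound for 48 hours at five concentrations; endpoints were interpolated linearly between bracketing concentrations, or set to the highest concentration if not reached. GI50 is the concentration that inhibits growth by half.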 Activity calls are given as the source filed them. Rule as the data show it: active = GI50 up to about 1.1 µM and inactive = higher.
What was measured:
Test in all cases: growth of human tumour cells (NCI), 48 h
BT-549 = tested on: BT-549
SW-620 = tested on: SW-620
SNB-75 = tested on: SNB-75
OVCAR-5 = tested on: OVCAR-5
MCF7 = tested on: MCF7
PC-3 = tested on: PC-3
HCC 2998 = tested on: HCC 2998
786-0 = tested on: 786-0
NCI/ADR-RES = tested on: NCI/ADR-RES
UO-31 = tested on: UO-31
SF-539 = tested on: SF-539
OVCAR-3 = tested on: OVCAR-3
DU-145 = tested on: DU-145
MDA-MB-231 = tested on: MDA-MB-231
K562 = tested on: K562
T47D = tested on: T47D
CAKI-1 = tested on: CAKI-1
SF-268 = tested on: SF-268
HCT-15 = tested on: HCT-15
HOP-92 = tested on: HOP-92

Compound | GI50 (BT-549) | GI50 (SW-620) | GI50 (SNB-75) | GI50 (OVCAR-5) | GI50 (MCF7) | GI50 (PC-3) | GI50 (HCC 2998) | GI50 (786-0) | GI50 (NCI/ADR-RES) | GI50 (UO-31) | GI50 (SF-539) | GI50 (OVCAR-3) | GI50 (DU-145) | GI50 (MDA-MB-231) | GI50 (K562) | GI50 (T47D) | GI50 (CAKI-1) | GI50 (SF-268) | GI50 (HCT-15) | GI50 (HOP-92)
CCSCC(=O)N1CCc2c([nH]c3ccccc23)C1=O | > 100 µM (inactive) | > 100 µM (inactive) | 78 µM (inactive) | 91 µM (inactive) | 96.6 µM (inactive) | > 100 µM (inactive) | > 100 µM (inactive) | > 100 µM (inactive) | > 100 µM (inactive) | > 100 µM (inactive) | > 100 µM (inactive) | > 100 µM (inactive) | > 100 µM (inactive) | > 100 µM (inactive) | > 100 µM (inactive) | > 100 µM (inactive) | > 100 µM (inactive) | > 100 µM (inactive) | > 100 µM | 22.9 µM (inactive)
CCOC(=O)CCc1ccc(NC(=O)/C=C/c2ccc([N+](=O)[O-])o2)cc1 | 2.66 µM (inactive) | 0.547 µM (active) | 2.16 µM (inactive) | 2.34 µM (inactive) | 0.426 µM (active) | 3.03 µM (inactive) | 2.69 µM (inactive) | 0.229 µM (active) | 1.78 µM (inactive) | 1.61 µM (inactive) | 1.72 µM (inactive) | 0.61 µM (active) | 2.1 µM (inactive) | 1.8 µM (inactive) | 0.27 µM (active) | 3.24 µM (inactive) | 2.47 µM (inactive) | 1.12 µM (inactive) | 1.77 µM | 4.04 µM (inactive)
Cc1ccc(/C(C#N)=C/c2cccc([N+](=O)[O-])c2)cc1 | > 100 µM (inactive) | > 100 µM (inactive) | 19.5 µM (inactive) | > 100 µM (inactive) | > 100 µM (inactive) | > 100 µM (inactive) | > 100 µM (inactive) | 31.8 µM (inactive) | > 100 µM (inactive) | 45.3 µM (inactive) | 46.5 µM (inactive) | > 100 µM (inactive) | 98.6 µM (inactive) | 19.2 µM (inactive) | > 100 µM (inactive) | > 100 µM (inactive) | > 100 µM (inactive) | 37.2 µM (inactive) | > 100 µM | 32.2 µM (inactive)
COc1cccc(Nc2n[nH]c(NS(=O)(=O)c3cc(C)c(Cl)cc3S)n2)c1 | > 100 µM (inactive) | > 100 µM (inactive) | > 100 µM (inactive) | > 100 µM (inactive) | > 100 µM (inactive) | > 100 µM (inactive) | > 100 µM (inactive) | > 100 µM (inactive) | > 100 µM (inactive) | > 100 µM (inactive) | > 100 µM (inactive) | > 100 µM (inactive) | > 100 µM (inactive) | > 100 µM (inactive) | > 100 µM (inactive) | > 100 µM (inactive) | > 100 µM (inactive) | > 100 µM (inactive) | > 100 µM | > 100 µM (inactive)
CC1=NN(C(=O)CC(=O)N(C(=O)c2ccccc2)c2ccc(Cl)cc2)C(=O)C1/N=N/c1ccc([N+](=O)[O-])cc1 (stereo not given) | > 10 µM (inactive) | > 10 µM (inactive) | > 10 µM (inactive) | > 10 µM (inactive) | > 10 µM (inactive) | > 10 µM (inactive) | > 10 µM (inactive) | > 10 µM (inactive) | > 10 µM (inactive) | > 10 µM (inactive) | > 10 µM (inactive) | > 10 µM (inactive) | > 10 µM (inactive) | > 10 µM (inactive) | > 10 µM (inactive) | > 10 µM (inactive) | > 10 µM (inactive) | > 10 µM (inactive) | > 10 µM | > 10 µM (inactive)
CCSC(=O)/C=C1\CN(C(=O)OC(C)(C)C)C1C(=O)OC(C)(C)C (stereo not given) | 10.3 µM (inactive) | 2.07 µM (inactive) | 2.59 µM (inactive) | 6.24 µM (inactive) | 2.38 µM (inactive) | 4.94 µM (inactive) | 5.38 µM (inactive) | 1.87 µM (inactive) | 2.74 µM (inactive) | 5.41 µM (inactive) | 3.03 µM (inactive) | 2.42 µM (inactive) | 4.95 µM (inactive) | 4.29 µM (inactive) | 1.91 µM (inactive) | 4.34 µM (inactive) | 6.56 µM (inactive) | 4.32 µM (inactive) | 1.52 µM | 2.59 µM (inactive)
O=C1CSC(c2cccc(Oc3ccccc3)c2)N1c1cc(Cl)ccc1Cl (stereo not given) | 19.1 µM (inactive) | 22.3 µM (inactive) | 26.4 µM (inactive) | 27.7 µM (inactive) | 6.3 µM (inactive) | 22.6 µM (inactive) | 14 µM (inactive) | 18.2 µM (inactive) | 29.2 µM (inactive) | 23.3 µM (inactive) | 19.1 µM (inactive) | 22.1 µM (inactive) | 35.2 µM (inactive) | 20.7 µM (inactive) | 19.4 µM (inactive) | 21.7 µM (inactive) | 22.5 µM (inactive) | 19.7 µM (inactive) | 23.8 µM | 16.4 µM (inactive)
COc1ccc(-c2c3c(n(C4OC(CO)C(O)C(O)C4O)c(=S)c2C#N)CCC3)cc1 (stereo not given) | 51.2 µM (inactive) | 71.9 µM (inactive) | 59.4 µM (inactive) | 74.6 µM (inactive) | 37.6 µM (inactive) | 41.3 µM (inactive) | 66.2 µM (inactive) | 36 µM (inactive) | > 100 µM (inactive) | > 100 µM (inactive) | 20.4 µM (inactive) | 25.7 µM (inactive) | 66.7 µM (inactive) | > 100 µM (inactive) | 41.9 µM (inactive) | 44.9 µM (inactive) | > 100 µM (inactive) | 62.8 µM (inactive) | 85.7 µM | 28.6 µM (inactive)

— ChEMBL document CHEMBL1201862, “PubChem BioAssay data set” (2004)
